Data published in patent publication US11708348B2, “Protease inhibitors for treatment of coronavirus infections” (The Scripps Research Institute, priority 2021, dated 2023).
Where two headings read alike, the source gives them in different places.

System: SARS-CoV-2 strain USA-WA1/2020
Assay: microbe, parasite or virus in culture
Assay type: cell-based
Conditions: read-out: EC50, uM (Hela)
[1] = Severe acute respiratory syndrome coronavirus 2, HeLa-ACE2, 24 h, HeLa-ACE2 cells, SARS-CoV-2 infection, 24 h, class symbols
[2] = Severe acute respiratory syndrome coronavirus 2, HeLa-ACE2, 24 h, HeLa-ACE2 cells, SARS-CoV-2 infection, 24 h, bound printed in cell
[3] = Severe acute respiratory syndrome coronavirus 2, HeLa-ACE2, 24 h

Compound	EC50 [1] [µM]	further results
CC(C)C[C@H](NC(=O)C(=O)NC(C)(C)C(F)F)C(=O)N[C@@H](C[C@@H]1CCNC1=O)C(=O)COC(F)(F)F [Compound 246, N1-(1,1-difluoro-2-methylpropan-2-yl)-N2-((S)-4-methyl-1-oxo-1-(((S)-3-oxo-1-((S)-2-oxopyrrolidin-3-yl)-4-(trifluoromethoxy)butan-2-yl)amino)pentan-2-yl)oxalamide]	< 0.05	–
CC(C)C[C@H](NC(=O)C1COCCO1)C(=O)N[C@@H](C[C@@H]1CCNC1=O)C(=O)COC(F)(F)F (stereo partly drawn) [Compound 247, N-((S)-4-methyl-1-oxo-1-(((S)-3-oxo-1-((S)-2-oxopyrrolidin-3-yl)-4-(trifluoromethoxy)butan-2-yl)amino)pentan-2-yl)-1,4-dioxane-2-carboxamide]	0.05 to 0.2	–
CC(C)C[C@H](NC(=O)c1cc2ncccc2[nH]1)C(=O)N[C@@H](C[C@@H]1CCNC1=O)C(=O)COC(F)(F)F [Compound 248, N-((S)-4-methyl-1-oxo-1-(((S)-3-oxo-1-((S)-2-oxopyrrolidin-3-yl)-4-(trifluoromethoxy)butan-2-yl)amino)pentan-2-yl)-1H-pyrrolo[3,2-b]pyridine-2-carboxamide]	0.2 to 0.5	–
CC(C)C[C@H](NC(=O)c1c[nH]c2ncccc12)C(=O)N[C@@H](C[C@@H]1CCNC1=O)C(=O)COC(F)(F)F [Compound 249, N-((S)-4-methyl-1-oxo-1-(((S)-3-oxo-1-((S)-2-oxopyrrolidin-3-yl)-4-(trifluoromethoxy)butan-2-yl)amino)pentan-2-yl)-1H-pyrrolo[2,3-b]pyridine-3-carboxamide]	0.2 to 0.5	–
CC1(NC(=O)C(=O)N[C@@H](Cc2ccc(F)cc2)C(=O)N[C@@H](C[C@@H]2CCNC2=O)C(=O)COC(F)(F)F)CC1 [Compound 250, N1-((S)-3-(4-fluorophenyl)-1-oxo-1-(((S)-3-oxo-1-((S)-2-oxopyrrolidin-3-yl)-4-(trifluoromethoxy)butan-2-yl)amino)propan-2-yl)-N2-(1-methylcyclopropyl)-oxalamide]	< 0.05	–
CC(C)C[C@H](NC(=O)C(=O)NC12CCC(F)(CC1)CC2)C(=O)N[C@@H](C[C@@H]1CCNC1=O)C(=O)COC(F)(F)F [Compound 251, N1-(4-fluorobicyclo-[2.2.2]octan-1-yl)-N2-((S)-4-methyl-1-oxo-1-(((S)-3-oxo-1-((S)-2-oxopyrrolidin-3-yl)-4-(trifluoromethoxy)butan-2-yl)amino)pentan-2-yl)oxalamide]	< 0.05	–
CC(C)C[C@H](NC(=O)C(=O)NC1(C)CCNC1)C(=O)N[C@@H](C[C@@H]1CCNC1=O)C(=O)COC(F)(F)F (stereo partly drawn) [Compound 252, N1-((S)-4-methyl-1-oxo-1-(((S)-3-oxo-1-((S)-2-oxopyrrolidin-3-yl)-4-(trifluoromethoxy)butan-2-yl)amino)pentan-2-yl)-N2-(3-methylpyrrolidin-3-yl)oxalamide]	0.2 to 0.5	–
CC(C)C[C@H](NC(=O)C(=O)NC1(CF)CC1)C(=O)N[C@@H](C[C@@H]1CCNC1=O)C(=O)COC(F)(F)F [Compound 254, Nl-(l-(fluoromethyl)-cyclopropyl)-N2-((S)-4-methyl-1-oxo-1-(((S)-3-oxo-1-((S)-2-oxopyrrolidin-3-yl)-4-(trifluoromethoxy)butan-2-yl)amino)pentan-2-yl)oxalamide]	< 0.05	–
COc1cccc2c1OC(C(=O)N[C@@H](CC(C)C)C(=O)N[C@@H](C[C@@H]1CCNC1=O)C(=O)COC(F)(F)F)C2 (stereo partly drawn) [Compound 255, 7-methoxy-N-((S)-4-methyl-1-oxo-1-(((S)-3-oxo-1-((S)-2-oxopyrrolidin-3-yl)-4-(trifluoromethoxy)butan-2-yl)amino)pentan-2-yl)-2,3-dihydrobenzofuran-2-carboxamide]	< 0.05	–
O=C(Nc1ccccc1F)C(=O)N1C[C@@H]2CCC[C@@H]2[C@H]1C(=O)N[C@@H](C[C@@H]1CCNC1=O)C(=O)COC(F)(F)F [Compound 256, (1S,3aR,6aS)-2-(2-((2-fluorophenyl)amino)-2-oxoacetyl)-N—((S)-3-oxo-1-((S)-2-oxopyrrolidin-3-yl)-4-(trifluoromethoxy)butan-2-yl)octahydrocyclopenta[c]pyrrole-1-carboxamide]	< 0.05	–
O=C(Nc1ccccc1F)C(=O)NC1(C(=O)N[C@@H](C[C@@H]2CCNC2=O)C(=O)COC(F)(F)F)CCOCC1 [Compound 257, N1-(2-fluorophenyl)-N2-(4-(((S)-3-oxo-1-((S)-2-oxopyrrolidin-3-yl)-4-(trifluoromethoxy)butan-2-yl)carbamoyl)-tetrahydro-2H-pyran-4-yl)oxalamide]	–	EC50 [2]: > 1 µM
CO[C@@H]1C[C@@H](C(=O)N[C@@H](C[C@@H]2CCNC2=O)C(=O)COC(F)(F)F)N(C(=O)C(=O)Nc2ccccc2F)C1 [Compound 258, (2S,4R)-1-(2-((2-fluorophenyl)amino)-2-oxoacetyl)-4-methoxy-N-((S)-3-oxo-1-((S)-2-oxopyrrolidin-3-yl)-4-(trifluoromethoxy)butan-2-yl)pyrrolidine-2-carboxamide]	–	EC50 [2]: > 1 µM
C=C[C@@H]1C[C@]1(NC(=O)c1cc2cc(F)ccc2[nH]1)C(=O)N[C@@H](C[C@@H]1CCNC1=O)C(=O)COC(F)(F)F [Compound 259, 5-fluoro-N-((1R,2S)-1-(((S)-3-oxo-1-((S)-2-oxopyrrolidin-3-yl)-4-(trifluoromethoxy)butan-2-yl)carbamoyl)-2-vinylcyclopropyl)-1H-indole-2-carboxamide]	–	EC50 [2]: > 1 µM
CC[C@@H]1C[C@]1(NC(=O)c1cc2cc(F)ccc2[nH]1)C(=O)N[C@@H](C[C@@H]1CCNC1=O)C(=O)COC(F)(F)F [Compound 261, N-((1R,2R)-2-ethyl-1-(((S)-3-oxo-1-((S)-2-oxopyrrolidin-3-yl)-4-(trifluoromethoxy)butan-2-yl)carbamoyl)cyclopropyl)-5-fluoro-1H-indole-2-carboxamide]	0.5 to 1	–
COCC1(NC(=O)C(=O)N[C@@H](CC(C)C)C(=O)N[C@@H](C[C@@H]2CCNC2=O)C(=O)COC(F)(F)F)CC1 [Compound 262, Nl-(1-(methoxymethyl)-cyclopropyl)-N2-((S)-4-methyl-1-oxo-1-(((S)-3-oxo-1-((S)-2-oxopyrrolidin-3-yl)-4-(trifluoromethoxy)butan-2-yl)amino)pentan-2-yl)oxalamide]	0.05 to 0.2	–
CC(C)C[C@H](NC(=O)c1c[nH]c2cccnc12)C(=O)N[C@@H](C[C@@H]1CCNC1=O)C(=O)COC(F)(F)F [Compound 263, N-((S)-4-methyl-1-oxo-1-(((S)-3-oxo-1-((S)-2-oxopyrrolidin-3-yl)-4-(trifluoromethoxy)butan-2-yl)amino)pentan-2-yl)-1H-pyrrolo[3,2-b]pyridine-3-carboxamide]	0.2 to 0.5	–
CC(C)(C)[C@H](NC(=O)C(F)(F)F)C(=O)N1C[C@H]2[C@@H]([C@H]1C(=O)N[C@@H](C[C@@H]1CCNC1=O)C(=O)COC(F)(F)F)C2(C)C [Compound 264, (1R,2S,5S)-3-((S)-3,3-dimethyl-2-(2,2,2-trifluoroacetamido)butanoyl)-6,6-dimethyl-N—((S)-3-oxo-1-((S)-2-oxopyrrolidin-3-yl)-4-(trifluoromethoxy)butan-2-yl)-3-azabicyclo[3.1.0]hexane-2-carboxamide]	–	EC50 [3]: < 0.05 µM
O=C(Nc1ccccc1F)C(=O)N1[C@@H]2C[C@@H]2C[C@H]1C(=O)N[C@@H](C[C@@H]1CCNC1=O)C(=O)COC(F)(F)F [Compound 265, (1R,S 5R)-2-(2-((2-fluorophenyl)amino)-2-oxoacetyl)-N-((S)-3-oxo-1-((S)-2-oxopyrrolidin-3-yl)-4-(trifluoromethoxy)butan-2-yl)-2-azabicyclo-[3.1.0]-hexane-3-carboxamide]	0.05 to 0.2	–
CC(C)(C)[C@H](NC(=O)C(F)(F)F)C(=O)N1C[C@@H]2CCC[C@@H]2[C@H]1C(=O)N[C@@H](C[C@@H]1CCNC1=O)C(=O)COC(F)(F)F [Compound 266, (1S,3aR,6aS)-2-((S)-3,3-dimethyl-2-(2,2,2-trifluoroacetamido)-butanoyl)-N-((S)-3-oxo-1-((S)-2-oxopyrrolidin-3-yl)-4-(trifluoromethoxy)butan-2-yl)octahydrocyclo-penta[c]pyrrole-1-carboxamide]	–	EC50 [3]: < 0.05 µM
O=C(NCC(F)(F)F)C(=O)NC(CC1CCOCC1)C(=O)N[C@@H](C[C@@H]1CCNC1=O)C(=O)COC(F)(F)F (stereo partly drawn) [Compound 267, N1-(1-oxo-1-(((S)-3-oxo-1-((S)-2-oxopyrrolidin-3-yl)-4-(trifluoromethoxy)butan-2-yl)amino)-3-(tetrahydro-2H-pyran-4-yl)propan-2-yl)-N2-(2,2,2-trifluoroethyl)-oxalamide]	0.5 to 1	–
CC1(NC(=O)C(=O)N2C[C@@H]3CCC[C@@H]3[C@H]2C(=O)N[C@@H](C[C@@H]2CCNC2=O)C(=O)COC(F)(F)F)CC1 [Compound 270, (1S,3aR,6aS)-2-(2-((l-methylcyclopropyl)-amino)-2-oxoacetyl)-N-((S)-3-oxo-1-((S)-2-oxopyrrolidin-3-yl)-4-(trifluoromethoxy)butan-2-yl)octahydrocyclo-penta[c]pyrrole-1-carboxamide]	0.05 to 0.2	–
O=C(Nc1ccccc1F)C(=O)NC(CC1CCOCC1)C(=O)N[C@@H](C[C@@H]1CCNC1=O)C(=O)COC(F)(F)F (stereo partly drawn) [Compound 271, N1-(2-fluorophenyl)-N2-(1-oxo-1-(((S)-3-oxo-1-((S)-2-oxopyrrolidin-3-yl)-4-(trifluoromethoxy)butan-2-yl)amino)-3-(tetrahydro-2H-pyran-4-yl)propan-2-yl)oxalamide]	< 0.05	–
O=C1NCC[C@H]1C[C@H](NC(=O)[C@@H]1[C@H]2CCC[C@H]2CN1C(=O)C1(NC(=O)C(F)(F)F)CCC1)C(=O)COC(F)(F)F [Compound 274, (1S,3aR,6aS)-N-((S)-3-oxo-1-((S)-2-oxopyrrolidin-3-yl)-4-(trifluoromethoxy)butan-2-yl)-2-(l-(2,2,2-trifluoroacetamido)-cyclobutane-1-carbonyl)octahydro-cyclopenta[c]pyrrole-l-carboxamide]	–	EC50: 0.2 to 0.5 µM
